The text below walks through data of patent US20220153751A1, “BIFUNCTIONAL COMPOUNDS” (BioTheryX, Inc., priority 2018, published 2022).

Holding throughout (type): cell-based
One test concerns the target T1, IKAROS (Homo sapiens, UniProt Q13422+Q96SW2).
T1 construct: endogenous in cells; host or cells: MV-4-11
The test can be described thus: IKAROS degradation assay (Western blot, MV-4-11 cells). As to conditions: MV4-11, 6-8 h. The procedure, abridged:
(§1)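 Immunoblot-based % degradation, scored A–D in 25% steps (D ≥75%). Compound exposure was 6-8 h.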
(In general: Immunoblotting shows a protein as a band on a membrane.)

Another test has as its target T2, CK1α (Homo sapiens, UniProt P48729+Q96SW2).
T2 construct: Whole cell extracts were prepared using RIPA buffer; endogenous in cells; host or cells: MV-4-11
Briefly: CK1α degradation assay (Western blot, MV-4-11 cells). As to conditions: MV4-11, 6-8 h. The procedure, abridged:
as §1

Another test has as its target T3, GSPT1 (Homo sapiens, UniProt P15170+Q96SW2).
T3 construct: Whole cell extracts were prepared using RIPA buffer; endogenous in cells; host or cells: MV-4-11
The test can be described thus: GSPT1 degradation assay (Western blot, MV-4-11 cells). As to conditions: MV4-11, 6-8 h. The procedure, abridged:
as §1

A further test concerns IL-1β. The test can be described thus: IL-1β inhibition assay, LPS-induced PBMCs / CD14+ monocytes (Meso Scale). The settings on record: 1 h pretreatment, 100 ng/mL LPS 18-24 h. In short, it runs like this:
(§2)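 Thawed human PBMCs or CD14+ mobilized peripheral blood monocytes, 200,000 cells/well in RPMI-1640/10% FBS, pretreated with compound or DMSO 1 h, then stimulated with 100 ng/mL LPS for 18-24 h. Supernatant cytokine measured by Meso Scale; % inhibition binned A–D (<50%, 50–70%, 70–90%, ≥90%), fold-change binned A–D (≤0.1, ≤0.5, ≤1, >1).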

The test system of another test is IL-6. The test can be described thus: IL-6 inhibition assay, LPS-induced PBMCs / CD14+ monocytes (Meso Scale). As to conditions: 1 h pretreatment, 100 ng/mL LPS 18-24 h. The procedure, abridged:
as §2

For another test, the system named is TNF-α. Briefly: TNF-α inhibition assay, LPS-induced PBMCs / CD14+ monocytes (Meso Scale). The settings on record: 1 h pretreatment, 100 ng/mL LPS 18-24 h. The procedure, abridged: as §2
A further test relates to IL-2. Briefly: IL-2 fold-change assay, anti-CD3 stimulated PBMCs (Mesoscale). The settings on record: PBMC, PBMCs on anti-human CD3, 24 h, fold difference from the DMSO control. In short, it runs like this: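 PBMCs (3-4 million cells/mL) stimulated on plates precoated with 1 μg/mL anti-human CD3 antibody, with compound, for 24 h. Supernatant IL-2 measured by Mesoscale. Result expressed as fold difference from DMSO control and reported in bins.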

A further test concerns MOLM-13 cells. Briefly: MOLM-13 cell viability assay (CellTiter-Glo). The settings on record: Homo sapiens, MOLM-13, 72 h, 3 days, read-out: MOLM-13 Cell Viability % DMSO at 1 μM. In short, it runs like this: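 MOLM-13 cells at 2500 cells/well were exposed to compound for 3 days at 37 °C. Viability was read by CellTiter-Glo luminescence and expressed as % of DMSO control, binned A (<50%), B (50–<70%), C (70–<90%) or D (≥90%).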
(In general: In ATP-based viability assays light output follows the ATP content of the culture.)

In another test the target is T4, CDK9 (Homo sapiens, UniProt P50750).
T4 construct: Whole cell extracts were prepared using RIPA buffer; endogenous in cells; host or cells: MV-4-11
Briefly: CDK9 degradation assay (Western blot, MV-4-11 cells). As to conditions: 6-8 h; for Dmax at 0.1 µM: MV4-11, 0.1 μM; for Dmax at 1 µM: MV4-11, 1 μM. The procedure, abridged: as §1

In another test the target is T5, CDK16 (Homo sapiens, UniProt Q00536).
T5 construct: Whole cell extracts were prepared using RIPA buffer; endogenous in cells; host or cells: MV-4-11
Briefly: CDK16 degradation assay (Western blot, MV-4-11 cells). The settings on record: 6-8 h; for Dmax at 0.1 µM: MV4-11, 0.1 μM; for Dmax at 1 µM: MV4-11, 1 μM. The procedure, abridged: as §1

T1 sequence (Q13422 whole entry): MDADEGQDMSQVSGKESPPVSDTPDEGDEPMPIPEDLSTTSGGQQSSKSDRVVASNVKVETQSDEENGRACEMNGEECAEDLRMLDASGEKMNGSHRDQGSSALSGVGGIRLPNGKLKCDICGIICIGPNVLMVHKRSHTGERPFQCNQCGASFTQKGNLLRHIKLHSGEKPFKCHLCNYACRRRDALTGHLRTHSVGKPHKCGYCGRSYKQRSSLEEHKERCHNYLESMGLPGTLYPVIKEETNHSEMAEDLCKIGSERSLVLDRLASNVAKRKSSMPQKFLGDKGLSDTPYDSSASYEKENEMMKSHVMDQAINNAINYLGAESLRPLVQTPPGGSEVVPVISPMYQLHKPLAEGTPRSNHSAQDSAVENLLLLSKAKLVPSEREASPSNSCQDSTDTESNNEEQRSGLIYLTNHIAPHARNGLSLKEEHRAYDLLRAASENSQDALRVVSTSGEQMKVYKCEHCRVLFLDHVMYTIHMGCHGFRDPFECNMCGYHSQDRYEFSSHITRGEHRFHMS
T1 sequence (Q96SW2 whole entry): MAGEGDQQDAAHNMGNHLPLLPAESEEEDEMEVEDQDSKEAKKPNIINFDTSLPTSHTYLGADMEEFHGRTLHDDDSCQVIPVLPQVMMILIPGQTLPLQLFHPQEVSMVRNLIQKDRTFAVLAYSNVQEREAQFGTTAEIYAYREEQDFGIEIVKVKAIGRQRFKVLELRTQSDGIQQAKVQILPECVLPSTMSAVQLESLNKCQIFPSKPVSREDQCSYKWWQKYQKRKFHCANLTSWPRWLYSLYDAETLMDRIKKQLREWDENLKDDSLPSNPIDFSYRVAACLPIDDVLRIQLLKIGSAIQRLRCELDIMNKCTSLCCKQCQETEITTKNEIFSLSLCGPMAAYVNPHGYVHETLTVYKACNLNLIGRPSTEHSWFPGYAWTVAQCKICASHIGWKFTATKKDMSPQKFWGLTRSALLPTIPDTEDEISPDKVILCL
T1 sequence (Q16531 whole entry partner): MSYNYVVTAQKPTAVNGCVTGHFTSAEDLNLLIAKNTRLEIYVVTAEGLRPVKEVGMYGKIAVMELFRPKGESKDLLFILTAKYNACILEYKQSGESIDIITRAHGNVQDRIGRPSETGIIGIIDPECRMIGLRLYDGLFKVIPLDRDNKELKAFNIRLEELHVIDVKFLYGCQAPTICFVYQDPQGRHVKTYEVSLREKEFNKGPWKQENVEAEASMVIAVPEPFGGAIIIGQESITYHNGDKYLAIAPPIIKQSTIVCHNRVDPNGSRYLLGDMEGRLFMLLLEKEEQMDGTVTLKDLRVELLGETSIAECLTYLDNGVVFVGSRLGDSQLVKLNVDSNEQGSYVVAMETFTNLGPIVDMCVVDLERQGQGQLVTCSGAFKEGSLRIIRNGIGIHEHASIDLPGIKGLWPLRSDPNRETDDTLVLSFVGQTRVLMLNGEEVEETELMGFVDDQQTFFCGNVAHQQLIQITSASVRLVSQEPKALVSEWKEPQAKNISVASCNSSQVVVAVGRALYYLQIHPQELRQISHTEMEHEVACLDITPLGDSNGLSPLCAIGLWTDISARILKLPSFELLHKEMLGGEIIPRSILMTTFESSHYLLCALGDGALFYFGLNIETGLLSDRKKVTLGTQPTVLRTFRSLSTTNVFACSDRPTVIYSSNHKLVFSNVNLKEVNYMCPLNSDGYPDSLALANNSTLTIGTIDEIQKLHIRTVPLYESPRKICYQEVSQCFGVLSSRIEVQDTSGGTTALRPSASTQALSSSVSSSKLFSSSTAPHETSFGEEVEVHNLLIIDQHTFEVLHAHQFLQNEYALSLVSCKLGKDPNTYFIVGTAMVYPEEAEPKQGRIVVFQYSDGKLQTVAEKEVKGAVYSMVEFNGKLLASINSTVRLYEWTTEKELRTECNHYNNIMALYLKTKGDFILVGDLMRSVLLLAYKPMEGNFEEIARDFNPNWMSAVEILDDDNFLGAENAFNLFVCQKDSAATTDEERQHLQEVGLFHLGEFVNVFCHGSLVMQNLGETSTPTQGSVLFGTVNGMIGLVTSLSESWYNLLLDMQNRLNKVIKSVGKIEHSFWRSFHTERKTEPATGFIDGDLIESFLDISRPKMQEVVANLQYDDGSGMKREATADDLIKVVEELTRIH
T5 sequence (Q00536 whole entry): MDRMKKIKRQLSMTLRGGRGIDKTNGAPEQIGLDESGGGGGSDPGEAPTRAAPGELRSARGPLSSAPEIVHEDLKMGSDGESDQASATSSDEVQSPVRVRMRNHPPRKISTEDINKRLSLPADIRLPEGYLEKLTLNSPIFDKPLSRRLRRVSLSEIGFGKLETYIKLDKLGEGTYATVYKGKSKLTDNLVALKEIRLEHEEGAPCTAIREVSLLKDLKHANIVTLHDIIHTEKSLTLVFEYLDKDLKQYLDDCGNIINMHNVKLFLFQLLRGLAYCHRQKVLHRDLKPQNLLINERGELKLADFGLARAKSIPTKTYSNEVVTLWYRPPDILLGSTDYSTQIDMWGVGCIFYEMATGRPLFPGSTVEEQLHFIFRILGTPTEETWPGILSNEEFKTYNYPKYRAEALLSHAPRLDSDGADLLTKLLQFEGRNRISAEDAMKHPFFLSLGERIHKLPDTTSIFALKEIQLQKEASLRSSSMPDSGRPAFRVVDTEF
T4 sequence (P50750 whole entry): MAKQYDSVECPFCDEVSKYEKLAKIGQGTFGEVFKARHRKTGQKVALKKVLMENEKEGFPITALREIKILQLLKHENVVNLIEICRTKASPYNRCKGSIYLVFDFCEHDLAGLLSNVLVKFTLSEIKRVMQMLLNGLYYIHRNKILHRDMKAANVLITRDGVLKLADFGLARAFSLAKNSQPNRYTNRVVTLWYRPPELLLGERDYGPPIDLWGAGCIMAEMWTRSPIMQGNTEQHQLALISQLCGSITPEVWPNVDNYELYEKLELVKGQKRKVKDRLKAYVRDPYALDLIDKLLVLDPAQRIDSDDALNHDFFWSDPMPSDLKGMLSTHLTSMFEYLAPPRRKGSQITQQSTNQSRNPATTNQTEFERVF
T2 sequence (P48729 whole entry): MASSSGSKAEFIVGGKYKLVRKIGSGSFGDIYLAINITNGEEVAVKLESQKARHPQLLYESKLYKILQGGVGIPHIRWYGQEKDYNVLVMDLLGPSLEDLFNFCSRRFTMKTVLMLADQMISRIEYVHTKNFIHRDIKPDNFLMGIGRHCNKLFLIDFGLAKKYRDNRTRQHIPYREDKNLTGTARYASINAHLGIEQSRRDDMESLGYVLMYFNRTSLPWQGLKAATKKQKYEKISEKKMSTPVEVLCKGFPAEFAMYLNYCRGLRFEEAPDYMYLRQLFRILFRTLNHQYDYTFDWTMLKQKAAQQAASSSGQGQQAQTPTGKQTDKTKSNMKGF
T2 sequence (Q96SW2 whole entry): as the sequence (Q96SW2 whole entry) above
T2 sequence (Q16531 whole entry partner): as the sequence (Q16531 whole entry partner) above
T3 sequence (P15170 whole entry): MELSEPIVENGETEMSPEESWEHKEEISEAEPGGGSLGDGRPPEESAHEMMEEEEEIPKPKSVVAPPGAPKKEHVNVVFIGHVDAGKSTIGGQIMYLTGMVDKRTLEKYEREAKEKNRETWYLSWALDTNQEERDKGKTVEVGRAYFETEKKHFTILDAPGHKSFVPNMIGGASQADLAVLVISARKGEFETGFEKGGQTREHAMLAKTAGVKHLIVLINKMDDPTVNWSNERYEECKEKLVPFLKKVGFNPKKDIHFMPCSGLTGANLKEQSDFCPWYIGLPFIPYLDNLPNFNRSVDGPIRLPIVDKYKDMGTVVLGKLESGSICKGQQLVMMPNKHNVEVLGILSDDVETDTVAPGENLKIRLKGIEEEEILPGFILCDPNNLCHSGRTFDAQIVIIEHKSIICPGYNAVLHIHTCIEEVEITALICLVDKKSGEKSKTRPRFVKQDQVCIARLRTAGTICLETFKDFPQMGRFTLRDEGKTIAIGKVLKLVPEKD
T3 sequence (Q96SW2 whole entry): as the sequence (Q96SW2 whole entry) above
T3 sequence (Q16531 whole entry partner): as the sequence (Q16531 whole entry partner) above

For the compound `CC(C)(C)c1cnc(CSc2cnc(NC(=O)C3CCN(CC(=O)NCCCCCCCNC(=O)NCc4cc5c(s4)C(=O)N(C4CCC(=O)NC4=O)C5)CC3)s2)o1` (stereo not shown) [Compound 18, N-(5-(((5-(tert-butyl)oxazol-2-yl)methyl)thio)thiazol-2-yl)-1-(2-((7-(3-((5-(2,6-dioxopiperidin-3-yl)-6-oxo-5,6-dihydro-4H-thieno[2,3-c]pyrrol-2-yl)methyl)ureido)heptyl)amino)-2-oxoethyl)piperidine-4-carboxamide], the results for the maximal degradation (Dmax) at 1 µM on IKAROS, at CK1α and at GSPT1 were 25 to 50%, 50 to 75% and 50 to 75%, respectively. The inhibition (in general, the change of the read-out against control, counted positive when it falls) at 1 µM in the test on IL-1β was > 90%; with IL-6, > 90%; in the test with TNF-α, 70 to 90%. In addition, the fold induction (commonly the signal under treatment as a multiple of the control signal) at 1 µM in the test with IL-2 was ≤ 0.1. For the same compound, the viability (as a rule, a per cent measure of how many cells are alive, often set against a control) at 1 µM in the test with MOLM-13 cells is > 90%.
As to `Cn1ncc(-c2nc(N[C@H]3CC[C@H](NCC(=O)NCCCCNCC(=O)NCc4cc5c(s4)C(=O)N(C4CCC(=O)NC4=O)C5=O)CC3)ncc2F)c1CC1CC1` (stereo partly shown) [Compound 37, 2-(((1r,4r)-4-((4-(5-(cyclopropylmethyl)-1-methyl-1H-pyrazol-4-yl)-5-fluoropyrimidin-2-yl)amino)cyclohexyl)amino)-N-(4-((2-(((5-(2,6-dioxopiperidin-3-yl)-4,6-dioxo-5,6-dihydro-4H-thieno[2,3-c]pyrrol-2-yl)methyl)amino)-2-oxoethyl)amino)butyl)acetamide], the Dmax (commonly the greatest extent of degradation seen) at 1 µM lay in the range of 25 to 50% at IKAROS, 25 to 50% at CK1α and 50 to 75% at GSPT1. Besides, the inhibition at 1 µM in the test with IL-1β is > 90%; with IL-6 it was > 90%; in the test on TNF-α, 70 to 90%. Further, the fold induction at 1 µM in the test with IL-2 is 0.1 to 0.5. Further, in the test on MOLM-13 cells, the viability at 1 µM was in the range of 50 to 70%.
Consider `CC(C)(C)c1cnc(CSc2cnc(NC(=O)C3CCN(CC(=O)NCCOCCOCCOCCNCC(=O)NCc4scc5c4CN(C4CCC(=O)NC4=O)C5=O)CC3)s2)o1` (stereo not shown) [Compound 41, N-(5-(((5-(tert-butyl)oxazol-2-yl)methyl)thio)thiazol-2-yl)-1-(1-(5-(2,6-dioxopiperidin-3-yl)-4-oxo-5,6-dihydro-4H-thieno[3,4-c]pyrrol-1-yl)-3,18-dioxo-8,11,14-trioxa-2,5,17-triazanonadecan-19-yl)piperidine-4-carboxamide], for which the Dmax at 1 µM on IKAROS is 50 to 75%; on CK1α, 50 to 75%; on GSPT1, ≥ 75%; at CDK9, ≥ 75%; at CDK16 it was < 25%. The values for the Dmax at 0.1 µM at CDK9 and on CDK16 were 50 to 75% and < 25%, respectively. Also, the inhibition at 1 µM in the test on IL-1β was > 90%; in the test with IL-6, > 90%; in the test on TNF-α it was 70 to 90%. In addition, the fold induction at 1 µM with IL-2 was 0.1 to 0.5. Besides, the viability at 1 µM in the test on MOLM-13 cells is 70 to 90%.
As for `Cn1ncc(-c2nc(N[C@H]3CC[C@H](NCC(=O)NCCOCCOCCOCCNc4cccc5c4CN(C4CCC(=O)NC4=O)C5=O)CC3)ncc2Cl)c1CC1CC1` (stereo partly shown) [Compound 55, 2-(((1r,4r)-4-((5-chloro-4-(5-(cyclopropylmethyl)-1-methyl-1H-pyrazol-4-yl)pyrimidin-2-yl)amino)cyclohexyl)amino)-N-(2-(2-(2-(2-((2-(2,6-dioxopiperidin-3-yl)-1-oxoisoindolin-4-yl)amino)ethoxy)ethoxy)ethoxy)ethyl)acetamide], the values for the Dmax at 1 µM on IKAROS, on CK1α and at GSPT1 were ≥ 75%, 25 to 50% and 50 to 75%, respectively. For the same compound, the inhibition at 1 µM in the test on IL-1β, with IL-6 and with TNF-α was > 90% each time. Besides, in the test with IL-2, the fold induction at 1 µM was ≤ 0.1. The viability at 1 µM in the test on MOLM-13 cells is > 90%.
With `Cn1ncc(-c2nc(N[C@H]3CC[C@H](NCCOCCOCCNCc4ccc(OCc5scc6c5CN([C@H]5CCC(=O)NC5=O)C6=O)cc4)CC3)ncc2Cl)c1CC1CC1` [Compound 67, (S)-3-(1-((4-(((2-(2-(2-(((1r,4r)-4-((5-chloro-4-(5-(cyclopropylmethyl)-1-methyl-1H-pyrazol-4-yl)pyrimidin-2-yl)amino)cyclohexyl)amino)ethoxy)ethoxy)ethyl)amino)methyl)phenoxy)methyl)-4-oxo-4H-thieno[3,4-c]pyrrol-5(6H)-yl)piperidine-2,6-dione], the Dmax at 1 µM on IKAROS was 25 to 50%; at CK1α it was 25 to 50%; at GSPT1 it was 50 to 75%. The inhibition at 1 µM in the test with IL-1β, with IL-6 and with TNF-α was > 90% throughout. Besides, the fold induction at 1 µM in the test on IL-2 was 0.5 to 1. Besides, the viability at 1 µM in the test with MOLM-13 cells was > 90%.
As for `Cn1ncc(-c2nc(N[C@H]3CC[C@H](NCC(=O)NCCCCNCC(=O)NCc4scc5c4C(=O)N(C4CCC(=O)NC4=O)C5=O)CC3)ncc2Cl)c1CC1CC1` (stereo partly shown) [Compound 51, 2-(((1r,4r)-4-((5-chloro-4-(5-(cyclopropylmethyl)-1-methyl-1H-pyrazol-4-yl)pyrimidin-2-yl)amino)cyclohexyl)amino)-N-(4-((2-(((5-(2,6-dioxopiperidin-3-yl)-4,6-dioxo-5,6-dihydro-4H-thieno[3,4-c]pyrrol-1-yl)methyl)amino)-2-oxoethyl)amino)butyl)acetamide], the Dmax at 1 µM fell in the range of 50 to 75% at IKAROS, 25 to 50% at CK1α and 25 to 50% at GSPT1. The inhibition at 1 µM in the test with IL-1β, in the test with IL-6 and in the test with TNF-α was > 90% throughout. Further, the fold induction at 1 µM with IL-2 is ≤ 0.1. The viability at 1 µM in the test with MOLM-13 cells was > 90%.
With `CC(C)(C)c1cnc(CSc2cnc(NC(=O)C3CCN(CC(=O)NCCOCCOCCNCC(=O)NCc4cc5c(s4)C(=O)N(C4CCC(=O)NC4=O)C5)CC3)s2)o1` (stereo not shown) [Compound 34, N-(5-(((5-(tert-butyl)oxazol-2-yl)methyl)thio)thiazol-2-yl)-1-(1-(5-(2,6-dioxopiperidin-3-yl)-6-oxo-5,6-dihydro-4H-thieno[2,3-c]pyrrol-2-yl)-3,15-dioxo-8,11-dioxa-2,5,14-triazahexadecan-16-yl)piperidine-4-carboxamide], the Dmax at 1 µM at IKAROS is 50 to 75%; on CK1α, 25 to 50%; on GSPT1 it was 50 to 75%; at CDK9, ≥ 75%; on CDK16 it was < 25%. Moreover, the Dmax at 0.1 µM was < 25% on CDK9 and 25 to 50% on CDK16. The inhibition at 1 µM with IL-1β, with IL-6 and with TNF-α was 70 to 90% in each case. In addition, the fold induction at 1 µM in the test with IL-2 is ≤ 0.1. For the same compound, the viability at 1 µM with MOLM-13 cells was > 90%.
